From the kinase profiling compilation of Christmann-Franck et al. (2016)
Values joined by “and” are separate entries in the source; they are usually repeats but may differ in a detail not shown here. Identical values can stand only once.

How the values were obtained:
Test in all cases: radiometric filter-binding kinase assay, Kinase HotSpot
Conditions in all cases: compound 0.5 µM; ATP 10 µM
EPHA7 (human) = EPHA7 (human) (UniProt Q15375)
PRKG2 (human) = PRKG2 (human) (UniProt Q13237)
CDK2 CCNA2 (human) = CDK2 CCNA2 (human) (UniProt P24941+P20248)
CDK4 CCND1 (human) = CDK4 CCND1 (human) (UniProt P24385+P11802)
MAPK1 (human) = MAPK1 (human) (UniProt P28482)
CAMK4 (human) = CAMK4 (human) (UniProt Q16566)
TGFBR1 (human) = TGFBR1 (human) (UniProt P36897)
PBK (human) = PBK (human) (UniProt Q96KB5)
PAK7 (human) = PAK7 (human) (UniProt Q9P286)
CDK3 CCNE1 (human) = CDK3 CCNE1 (human) (UniProt Q00526+P24864)
RPS6KA2 KD1 KD2 (human) = RPS6KA2 KD1 KD2 (human) (UniProt Q15349)
Sequence of RPS6KA2 KD1 KD2 (human) (Q15349 whole entry, looked up): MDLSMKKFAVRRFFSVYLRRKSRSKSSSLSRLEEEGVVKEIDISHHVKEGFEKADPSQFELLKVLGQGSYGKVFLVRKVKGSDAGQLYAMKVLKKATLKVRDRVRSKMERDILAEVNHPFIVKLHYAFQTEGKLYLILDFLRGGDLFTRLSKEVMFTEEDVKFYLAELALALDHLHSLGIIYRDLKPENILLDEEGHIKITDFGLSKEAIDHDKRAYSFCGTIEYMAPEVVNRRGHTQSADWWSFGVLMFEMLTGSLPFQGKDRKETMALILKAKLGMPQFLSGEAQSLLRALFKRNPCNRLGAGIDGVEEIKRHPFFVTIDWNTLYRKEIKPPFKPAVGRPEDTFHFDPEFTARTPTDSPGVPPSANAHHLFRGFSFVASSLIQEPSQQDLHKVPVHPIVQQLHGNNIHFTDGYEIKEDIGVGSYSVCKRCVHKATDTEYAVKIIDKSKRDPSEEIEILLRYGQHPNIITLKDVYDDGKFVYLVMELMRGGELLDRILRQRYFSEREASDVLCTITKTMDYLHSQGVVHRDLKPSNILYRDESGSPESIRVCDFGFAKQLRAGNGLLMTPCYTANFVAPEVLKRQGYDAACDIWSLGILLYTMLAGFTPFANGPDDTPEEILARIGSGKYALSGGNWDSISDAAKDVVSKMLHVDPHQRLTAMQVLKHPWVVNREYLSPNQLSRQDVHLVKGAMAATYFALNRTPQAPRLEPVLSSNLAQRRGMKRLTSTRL

IRAK1 (human) = IRAK1 (human) (UniProt P51617)
FER (human) = FER (human) (UniProt P16591)
Sequence of FER (human) (P16591 whole entry, looked up): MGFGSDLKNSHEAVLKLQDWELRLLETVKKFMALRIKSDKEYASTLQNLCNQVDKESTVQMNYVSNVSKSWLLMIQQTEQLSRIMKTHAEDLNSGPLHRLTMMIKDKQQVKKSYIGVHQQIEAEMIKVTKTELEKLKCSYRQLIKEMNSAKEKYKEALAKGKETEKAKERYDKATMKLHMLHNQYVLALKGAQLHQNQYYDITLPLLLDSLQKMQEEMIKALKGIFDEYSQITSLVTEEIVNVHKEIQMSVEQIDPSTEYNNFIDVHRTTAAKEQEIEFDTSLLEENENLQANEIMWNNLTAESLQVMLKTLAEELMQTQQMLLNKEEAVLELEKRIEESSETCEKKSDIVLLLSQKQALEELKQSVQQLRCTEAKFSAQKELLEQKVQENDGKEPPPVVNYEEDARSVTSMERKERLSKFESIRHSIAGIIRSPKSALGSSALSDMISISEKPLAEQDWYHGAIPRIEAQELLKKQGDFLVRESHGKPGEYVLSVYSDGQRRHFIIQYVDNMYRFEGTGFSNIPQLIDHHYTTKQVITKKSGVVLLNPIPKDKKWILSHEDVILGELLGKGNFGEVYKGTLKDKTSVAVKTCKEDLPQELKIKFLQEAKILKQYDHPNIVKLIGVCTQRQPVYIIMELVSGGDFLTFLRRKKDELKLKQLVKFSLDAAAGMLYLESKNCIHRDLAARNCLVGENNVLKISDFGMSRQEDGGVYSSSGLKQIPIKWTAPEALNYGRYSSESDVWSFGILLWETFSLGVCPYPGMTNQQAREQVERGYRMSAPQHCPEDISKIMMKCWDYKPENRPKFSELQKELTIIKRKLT

NUAK1 (human) = NUAK1 (human) (UniProt O60285)
CSNK2A2 (human) = CSNK2A2 (human) (UniProt P19784)
Sequence of CSNK2A2 (human) (P19784 whole entry, looked up): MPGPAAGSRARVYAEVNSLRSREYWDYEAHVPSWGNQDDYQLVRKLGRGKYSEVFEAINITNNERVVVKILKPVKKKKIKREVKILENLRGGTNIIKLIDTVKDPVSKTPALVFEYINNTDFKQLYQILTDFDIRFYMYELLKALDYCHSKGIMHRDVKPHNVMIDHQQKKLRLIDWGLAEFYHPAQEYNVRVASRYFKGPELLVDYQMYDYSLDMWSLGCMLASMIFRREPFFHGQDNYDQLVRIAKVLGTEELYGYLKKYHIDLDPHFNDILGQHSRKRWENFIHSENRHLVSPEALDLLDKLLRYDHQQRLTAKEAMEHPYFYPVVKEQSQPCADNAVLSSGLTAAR

EPHB2 (human) = EPHB2 (human) (UniProt P29323)
CLK4 (human) = CLK4 (human) (UniProt Q9HAZ1)
CHEK2 (human) = CHEK2 (human) (UniProt O96017)
PLK2 (human) = PLK2 (human) (UniProt Q9NYY3)
Sequence of PLK2 (human) (Q9NYY3 whole entry, looked up): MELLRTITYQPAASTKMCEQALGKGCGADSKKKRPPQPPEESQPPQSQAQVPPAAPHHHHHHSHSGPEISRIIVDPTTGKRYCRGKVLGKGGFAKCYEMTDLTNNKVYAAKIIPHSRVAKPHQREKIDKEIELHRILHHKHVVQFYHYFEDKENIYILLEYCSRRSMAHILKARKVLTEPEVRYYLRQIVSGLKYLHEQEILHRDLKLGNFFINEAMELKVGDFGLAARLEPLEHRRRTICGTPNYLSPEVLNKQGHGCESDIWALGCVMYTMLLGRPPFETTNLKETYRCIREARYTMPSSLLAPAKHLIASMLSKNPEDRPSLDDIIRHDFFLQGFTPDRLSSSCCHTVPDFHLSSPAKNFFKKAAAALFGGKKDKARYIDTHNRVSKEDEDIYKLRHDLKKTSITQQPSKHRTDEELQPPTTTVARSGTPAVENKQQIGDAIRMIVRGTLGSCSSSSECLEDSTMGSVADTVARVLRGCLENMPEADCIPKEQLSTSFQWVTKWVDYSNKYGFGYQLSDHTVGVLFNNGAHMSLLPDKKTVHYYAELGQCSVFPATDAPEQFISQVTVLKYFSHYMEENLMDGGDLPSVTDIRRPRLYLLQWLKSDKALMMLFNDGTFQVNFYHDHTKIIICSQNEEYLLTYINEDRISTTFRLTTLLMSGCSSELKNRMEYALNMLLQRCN

CSF1R (human) = CSF1R (human) (UniProt P07333)
TEK (human) = TEK (human) (UniProt Q02763)
CDK1 CCNB1 (human) = CDK1 CCNB1 (human) (UniProt P06493+P14635)
MARK2 (human) = MARK2 (human) (UniProt Q7KZI7)
STK39 (human) = STK39 (human) (UniProt Q9UEW8)
DYRK3 (human) = DYRK3 (human) (UniProt O43781)
LYN (human) = LYN (human) (UniProt P07948)
EPHA8 (human) = EPHA8 (human) (UniProt P29322)
PAK3 (human) = PAK3 (human) (UniProt O75914)
MAP3K5 (human) = MAP3K5 (human) (UniProt Q99683)
MUSK (human) = MUSK (human) (UniProt O15146)
TYRO3 (human) = TYRO3 (human) (UniProt Q06418)
ULK1 (human) = ULK1 (human) (UniProt O75385)
ACVRL1 (human) = ACVRL1 (human) (UniProt P37023)
AKT3 (human) = AKT3 (human) (UniProt Q9Y243)
PRKX (human) = PRKX (human) (UniProt P51817)
STK3 (human) = STK3 (human) (UniProt Q13188)
TAOK1 (human) = TAOK1 (human) (UniProt Q7L7X3)
CSNK1G2 (human) = CSNK1G2 (human) (UniProt P78368)
PHKG2 (human) = PHKG2 (human) (UniProt P15735)
[1] = system: MAP2K6 (human), P52564 [S207E/T211E]
ROS1 (human) = ROS1 (human) (UniProt P08922)
Sequence of ROS1 (human) (P08922 whole entry, looked up): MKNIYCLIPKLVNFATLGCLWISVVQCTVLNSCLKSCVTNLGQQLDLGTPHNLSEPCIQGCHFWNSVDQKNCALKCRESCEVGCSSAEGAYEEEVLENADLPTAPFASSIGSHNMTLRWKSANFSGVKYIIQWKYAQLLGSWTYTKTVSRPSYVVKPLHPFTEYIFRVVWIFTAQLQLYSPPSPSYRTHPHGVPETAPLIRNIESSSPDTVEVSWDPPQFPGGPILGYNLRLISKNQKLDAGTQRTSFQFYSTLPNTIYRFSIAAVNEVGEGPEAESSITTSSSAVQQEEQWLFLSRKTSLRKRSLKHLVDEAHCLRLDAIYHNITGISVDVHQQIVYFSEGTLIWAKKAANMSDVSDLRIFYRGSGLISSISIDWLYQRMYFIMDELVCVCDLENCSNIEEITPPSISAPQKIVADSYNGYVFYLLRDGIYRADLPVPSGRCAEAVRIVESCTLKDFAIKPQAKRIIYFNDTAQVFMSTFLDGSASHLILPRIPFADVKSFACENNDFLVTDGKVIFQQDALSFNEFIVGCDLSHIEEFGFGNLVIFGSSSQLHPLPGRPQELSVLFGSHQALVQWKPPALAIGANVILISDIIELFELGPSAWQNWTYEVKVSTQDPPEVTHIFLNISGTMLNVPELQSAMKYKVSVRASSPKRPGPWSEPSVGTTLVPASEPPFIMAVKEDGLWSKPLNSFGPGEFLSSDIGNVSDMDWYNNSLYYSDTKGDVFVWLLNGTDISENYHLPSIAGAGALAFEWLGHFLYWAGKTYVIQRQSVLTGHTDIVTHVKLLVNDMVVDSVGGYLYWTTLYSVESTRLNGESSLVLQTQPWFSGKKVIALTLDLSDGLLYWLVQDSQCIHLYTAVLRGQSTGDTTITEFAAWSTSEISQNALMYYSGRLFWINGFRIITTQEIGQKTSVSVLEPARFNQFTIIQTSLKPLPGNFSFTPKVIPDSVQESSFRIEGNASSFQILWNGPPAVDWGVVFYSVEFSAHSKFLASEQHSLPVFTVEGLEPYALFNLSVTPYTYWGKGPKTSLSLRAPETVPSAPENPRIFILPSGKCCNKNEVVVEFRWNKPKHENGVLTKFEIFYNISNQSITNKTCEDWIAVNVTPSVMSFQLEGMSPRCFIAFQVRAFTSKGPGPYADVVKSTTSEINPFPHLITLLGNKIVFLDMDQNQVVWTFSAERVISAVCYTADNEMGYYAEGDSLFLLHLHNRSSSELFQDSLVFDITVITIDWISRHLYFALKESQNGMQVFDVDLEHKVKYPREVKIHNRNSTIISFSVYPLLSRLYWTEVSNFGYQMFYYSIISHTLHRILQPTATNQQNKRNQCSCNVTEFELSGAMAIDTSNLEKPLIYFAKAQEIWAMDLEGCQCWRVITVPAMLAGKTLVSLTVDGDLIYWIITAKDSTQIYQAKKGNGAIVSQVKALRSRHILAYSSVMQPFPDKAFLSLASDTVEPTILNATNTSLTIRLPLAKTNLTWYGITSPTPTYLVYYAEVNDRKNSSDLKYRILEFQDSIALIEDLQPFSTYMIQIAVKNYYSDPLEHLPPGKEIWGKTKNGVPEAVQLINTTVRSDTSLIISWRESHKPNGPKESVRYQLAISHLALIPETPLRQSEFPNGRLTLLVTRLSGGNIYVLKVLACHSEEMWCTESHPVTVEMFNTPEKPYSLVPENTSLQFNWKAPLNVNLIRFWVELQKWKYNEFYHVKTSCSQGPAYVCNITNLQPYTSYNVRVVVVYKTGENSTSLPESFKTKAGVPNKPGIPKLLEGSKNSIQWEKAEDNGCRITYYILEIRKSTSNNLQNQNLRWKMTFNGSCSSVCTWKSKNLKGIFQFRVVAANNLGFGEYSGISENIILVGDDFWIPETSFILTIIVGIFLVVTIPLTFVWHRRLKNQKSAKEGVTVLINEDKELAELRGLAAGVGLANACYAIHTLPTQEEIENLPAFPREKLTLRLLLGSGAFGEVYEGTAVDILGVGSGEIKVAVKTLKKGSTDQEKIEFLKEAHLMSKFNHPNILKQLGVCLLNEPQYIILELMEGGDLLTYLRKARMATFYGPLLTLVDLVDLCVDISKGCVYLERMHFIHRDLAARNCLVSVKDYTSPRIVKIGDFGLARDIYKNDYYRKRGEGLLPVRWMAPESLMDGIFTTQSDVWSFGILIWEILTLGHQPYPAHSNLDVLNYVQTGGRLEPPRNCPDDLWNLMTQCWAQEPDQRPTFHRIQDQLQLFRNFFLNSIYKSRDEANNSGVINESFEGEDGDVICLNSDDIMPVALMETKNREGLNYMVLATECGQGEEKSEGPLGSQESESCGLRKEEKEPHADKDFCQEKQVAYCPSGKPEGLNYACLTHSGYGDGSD

SRMS (human) = SRMS (human) (UniProt Q9H3Y6)

Compound Cc1cccc(-c2nc(C(C)(C)C)[nH]c2-c2ccc3c(c2)OCO3)n1 has a residual activity (EPHA7 (human)) of 81.6%, a residual activity (PRKG2 (human)) of 95.9% and a residual activity (CDK2 CCNA2 (human)) of 117%. For the same compound, the residual activity (CDK4 CCND1 (human)) was 105%, the residual activity (MAPK1 (human)) was 95.8% and the residual activity (CAMK4 (human)) was 100%. For the same compound, the residual activity (TGFBR1 (human)) was 35.8%, the residual activity (PBK (human)) was 103% and the residual activity (PAK7 (human)) was 92.7%. The residual activity (CDK3 CCNE1 (human)) was 97.6%, the residual activity (RPS6KA2 KD1 KD2 (human)) was 96.4% and the residual activity (IRAK1 (human)) was 118%. For the same compound, the residual activity (FER (human)) was 85.4%, the residual activity (NUAK1 (human)) was 97.3% and the residual activity (CSNK2A2 (human)) was 83.6%. For the same compound, the residual activity (EPHB2 (human)) was 93%, the residual activity (CLK4 (human)) was 95.8% and the residual activity (CHEK2 (human)) was 96.4%. For the same compound, the residual activity (PLK2 (human)) was 92.1%, the residual activity (CSF1R (human)) was 102% and the residual activity (TEK (human)) was 95.2%. It also gave a residual activity (CDK1 CCNB1 (human)) of 100%, a residual activity (MARK2 (human)) of 90% and a residual activity (STK39 (human)) of 107%. For the same compound, the residual activity (DYRK3 (human)) was 102%, the residual activity (LYN (human)) was 82.8% and 99.2% and the residual activity (EPHA8 (human)) was 89.9%. The residual activity (PAK3 (human)) was 95.9%, the residual activity (MAP3K5 (human)) was 103% and the residual activity (MUSK (human)) was 99.1%. For the same compound, the residual activity (TYRO3 (human)) was 102%, the residual activity (ULK1 (human)) was 82.7% and the residual activity (ACVRL1 (human)) was 127%. The residual activity (AKT3 (human)) was 94.7%, the residual activity (PRKX (human)) was 95% and the residual activity (STK3 (human)) was 97.7%. For the same compound, the residual activity (TAOK1 (human)) was 97.6%, the residual activity (CSNK1G2 (human)) was 104% and the residual activity (PHKG2 (human)) was 107%. The residual activity [1] was 105%, the residual activity (ROS1 (human)) was 101% and the residual activity (SRMS (human)) was 102%.
With COc1ccc(S(=O)(=O)N(CCO)c2ccccc2CN(C)C/C=C/c2ccc(Cl)cc2)cc1 the residual activity (EPHA7 (human)) was 98.9%, the residual activity (PRKG2 (human)) was 104% and the residual activity (CDK2 CCNA2 (human)) was 99.7%. The residual activity (CDK4 CCND1 (human)) was 94.6%, the residual activity (MAPK1 (human)) was 97% and the residual activity (CAMK4 (human)) was 97.5%. The residual activity (TGFBR1 (human)) was 101%, the residual activity (PBK (human)) was 95.3% and the residual activity (PAK7 (human)) was 107%. The residual activity (CDK3 CCNE1 (human)) was 103%, the residual activity (RPS6KA2 KD1 KD2 (human)) was 99.2% and the residual activity (IRAK1 (human)) was 98%. It also gave a residual activity (FER (human)) of 97.1%, a residual activity (NUAK1 (human)) of 96.5% and a residual activity (CSNK2A2 (human)) of 93.7%. It also gave a residual activity (EPHB2 (human)) of 97.7%, a residual activity (CLK4 (human)) of 96% and a residual activity (CHEK2 (human)) of 101%. The residual activity (PLK2 (human)) was 102%, the residual activity (CSF1R (human)) was 103% and the residual activity (TEK (human)) was 105%. It also gave a residual activity (CDK1 CCNB1 (human)) of 105%, a residual activity (MARK2 (human)) of 95.5% and a residual activity (STK39 (human)) of 92.8%. For the same compound, the residual activity (DYRK3 (human)) was 113%, the residual activity (LYN (human)) was 92.3% and 96.8% and the residual activity (EPHA8 (human)) was 100%. It also gave a residual activity (PAK3 (human)) of 102%, a residual activity (MAP3K5 (human)) of 93.7% and a residual activity (MUSK (human)) of 94.7%. The residual activity (TYRO3 (human)) was 97.1%, the residual activity (ULK1 (human)) was 99.7% and the residual activity (ACVRL1 (human)) was 98.4%. For the same compound, the residual activity (AKT3 (human)) was 105%, the residual activity (PRKX (human)) was 104% and the residual activity (STK3 (human)) was 101%. The residual activity (TAOK1 (human)) was 103%, the residual activity (CSNK1G2 (human)) was 103% and the residual activity (PHKG2 (human)) was 103%. The residual activity [1] was 108%, the residual activity (ROS1 (human)) was 95.4% and the residual activity (SRMS (human)) was 101%.
COc1ccc2c(c1)c(C1=C(c3c[nH]c4ccccc34)C(=O)NC1=O)cn2CCCN(C)C was tested, and the residual activity (EPHA7 (human)) was 88.8%, the residual activity (PRKG2 (human)) was 60.7% and the residual activity (CDK2 CCNA2 (human)) was 112%. For the same compound, the residual activity (CDK4 CCND1 (human)) was 78.6%, the residual activity (MAPK1 (human)) was 102% and the residual activity (CAMK4 (human)) was 90.3%. For the same compound, the residual activity (TGFBR1 (human)) was 101%, the residual activity (PBK (human)) was 96.8% and the residual activity (PAK7 (human)) was 67.6%. The residual activity (CDK3 CCNE1 (human)) was 78.8%, the residual activity (RPS6KA2 KD1 KD2 (human)) was 5.46% and the residual activity (IRAK1 (human)) was 89%. For the same compound, the residual activity (FER (human)) was 70.9%, the residual activity (NUAK1 (human)) was 32.2% and the residual activity (CSNK2A2 (human)) was 99.3%. For the same compound, the residual activity (EPHB2 (human)) was 78.7%, the residual activity (CLK4 (human)) was 32.8% and the residual activity (CHEK2 (human)) was 38.8%. The residual activity (PLK2 (human)) was 103%, the residual activity (CSF1R (human)) was 92.8% and the residual activity (TEK (human)) was 102%. For the same compound, the residual activity (CDK1 CCNB1 (human)) was 94.4%, the residual activity (MARK2 (human)) was 91.8% and the residual activity (STK39 (human)) was 111%. The residual activity (DYRK3 (human)) was 81%, the residual activity (LYN (human)) was 112% and 94.2% and the residual activity (EPHA8 (human)) was 102%. For the same compound, the residual activity (PAK3 (human)) was 105%, the residual activity (MAP3K5 (human)) was 95.1% and the residual activity (MUSK (human)) was 53.5%. The residual activity (TYRO3 (human)) was 90.7%, the residual activity (ULK1 (human)) was 99% and the residual activity (ACVRL1 (human)) was 87.8%. The residual activity (AKT3 (human)) was 63.7%, the residual activity (PRKX (human)) was 102% and the residual activity (STK3 (human)) was 72.2%. It also gave a residual activity (TAOK1 (human)) of 99.5%, a residual activity (CSNK1G2 (human)) of 82.2% and a residual activity (PHKG2 (human)) of 98.3%. The residual activity [1] was 91.6%, the residual activity (ROS1 (human)) was 52.4% and the residual activity (SRMS (human)) was 95.9%.
